Experimental data taken from patent EP0562832A1, “Indole and indazole derivatives, for the treatment and prophylaxis of cerebral disorders, their preparation and their use” (priority 1992, dated 1993).
Where a name gives a salt, the structure may show the parent alone.

Target: T1, acetylcholinesterase (Mus musculus, UniProt P21836)
T1 construct: The mouse brain was homogenised by means of a 5-fold amount of a 100 mM phosphate buffer (pH 8.0) to prepare an enzyme sample; from tissue; host or cells: brain of male ddY mice, 5 to 7 weeks old (Japan SLC)
T1 sequence (P21836 32-614): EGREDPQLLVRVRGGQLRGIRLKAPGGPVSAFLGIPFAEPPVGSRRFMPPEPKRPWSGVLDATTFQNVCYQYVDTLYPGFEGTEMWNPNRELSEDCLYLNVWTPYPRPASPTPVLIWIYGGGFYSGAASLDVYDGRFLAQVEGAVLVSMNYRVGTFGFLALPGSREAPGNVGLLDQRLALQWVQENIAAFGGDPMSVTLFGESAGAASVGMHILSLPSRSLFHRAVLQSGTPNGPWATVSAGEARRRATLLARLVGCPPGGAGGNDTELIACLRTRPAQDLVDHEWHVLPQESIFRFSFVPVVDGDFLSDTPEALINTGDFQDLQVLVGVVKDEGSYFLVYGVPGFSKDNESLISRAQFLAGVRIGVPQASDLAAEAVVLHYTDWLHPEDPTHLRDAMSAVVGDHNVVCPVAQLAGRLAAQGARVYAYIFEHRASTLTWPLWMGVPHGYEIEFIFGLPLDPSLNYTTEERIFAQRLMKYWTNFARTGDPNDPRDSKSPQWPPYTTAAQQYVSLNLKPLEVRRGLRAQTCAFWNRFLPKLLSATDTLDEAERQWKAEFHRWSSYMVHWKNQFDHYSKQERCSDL
Experiment: Assay of acetylcholinesterase inhibitory activity (Elman's method, mouse brain homogenate)
Type: biochemical

Structure (SMILES)	IC50
CCc1ccc2c(C(=O)CCC3CCN(Cc4ccccc4)CC3)cn(C)c2c1 [1-16]	4 nM
Cn1cc(C(=O)CCC2CCN(Cc3cccc(F)c3)CC2)c2cc(F)ccc21 [1-315, 1-Methyl-3-{3-[1-(3-fluorobenzyl)-4-piperidyl]propionyl}-5-fluoroindole oxalate]	2.3 nM
Cc1ccc2c(c1)c(C(=O)CCC1CCN(Cc3ccccc3)CC1)nn2C [2-8]	13 nM
Cn1nc(C(=O)C=CC2CCN(Cc3ccccc3)CC2)c2c(Cl)cccc21 [2-23]	11 nM
Cn1nc(C(=O)CCC2CCN(Cc3ccccc3)CC2)c2c(Cl)cccc21 [2-24]	10 nM
Cn1cc(C(=O)CCC2CCN(Cc3ccccc3)CC2)c2ccccc21 [Compound No. 1-2, 1-Methyl-3-[3-(1-benzyl-4-piperidyl)propionyl]indole]	3.3 nM
Cn1cc(C(=O)CCC2CCN(Cc3ccccc3)CC2)c2ccccc21 [Compound No. 1-4, 1-Methyl-3-[3-(1-benzyl-4-piperidyl)propionyl]indole oxalate]	10 nM
Cn1cc(C(=O)CCC2CCN(Cc3ccccc3)CC2)c2cc(Cl)ccc21 [Compound No. 1-28, 1-Methyl-3-[3-(1-benzyl-4-piperidyl)propionyl]-5-chloroindole]	4 nM
Cn1cc(C(=O)CCC2CCN(Cc3ccccc3)CC2)c2ccc(Cl)cc21 [Compound No. 1-30, 1-Methyl-3-[3-(1-benzyl-4-piperidyl)propionyl]-6-chloroindole]	9 nM
Cn1cc(C(=O)CCC2CCN(Cc3ccccc3)CC2)c2cc(F)ccc21 [Compound No. 1-40, 1-Methyl-3-[3-(1-benzyl-4-piperidyl)propionyl]-5-fluoroindole]	4 nM
Cn1cc(C(=O)CCC2CCN(Cc3cccc(F)c3)CC2)c2ccccc21 [Compound No. 1-78, 1-Methyl-3-{3-[1-(3-fluorobenzyl)-4-piperidyl]propionyl}indole]	8 nM
Cn1cc(C(=O)CCC2CCN(Cc3cccc(Cl)c3)CC2)c2ccccc21 [Compound No. 1-85, 1-Methyl-3-{3-[1-(3-chlorobenzyl)-4-piperidyl]propionyl}indole hydrochloride]	6.5 nM
Cn1cc(C(=O)CCC2CCN(Cc3cccs3)CC2)c2ccccc21 [Compound No. 1-116, 1-Methyl-3-{3-[1-(2-thienylmethyl)-4-piperidyl]propionyl}indole]	10 nM
Cn1cc(C(=O)CCC2CCN(Cc3cccc(Cl)c3)CC2)c2cc(Cl)ccc21 [Compound No. 1-304, 1-Methyl-3-{3-[1-(3-chlorobenzyl)-4-piperidyl]propionyl}-5-chloroindole hydrochloride]	7.5 nM
Cn1cc(C(=O)CCC2CCN(Cc3cccc(F)c3)CC2)c2cc(Cl)ccc21 [Compound No. 1-309, 1-Methyl-3-{3-[1-(3-fluorobenzyl)-4-piperidyl]propionyl}-5-chloroindole]	8.2 nM
Cn1cc(C(=O)CCC2CCN(Cc3cccc(F)c3)CC2)c2cc(F)ccc21 [Compound No. 1-313, 1-Methyl-3-{3-[1-(3-fluorobenzyl)-4-piperidyl]propionyl}-5-fluoroindole]	2 nM
Cn1cc(C(=O)CCC2CCN(Cc3cccc(F)c3)CC2)c2cc(F)ccc21 [Compound No. 1-314, 1-Methyl-3-{3-[1-(3-fluorobenzyl)-4-piperidyl]propionyl}-5-fluoroindole hydrochloride]	3.4 nM
Cn1nc(C(=O)CCC2CCN(Cc3ccccc3)CC2)c2ccccc21 [Compound No. 2-2, 1-Methyl-3-[3-(1-benzyl-4-piperidyl)propionyl]indazole]	10 nM
Cn1nc(C(=O)CCC2CCN(Cc3ccccc3)CC2)c2ccccc21 [Compound No. 2-3, 1-Methyl-3-[3-(1-benzyl-4-piperidyl)propionyl]indazole hydrochloride]	12 nM
Cc1ccc2c(C(=O)C=CC3CCN(Cc4ccccc4)CC3)nn(C)c2c1 [Compound No. 2-9]	14 nM
Cn1nc(C(=O)CCC2CCN(Cc3ccccc3Cl)CC2)c2ccccc21 [Compound No. 2-96, 1-Methyl-3-{3-[1-(2-chlorobenzyl)-4-piperidyl]propionyl}indazole hydrochloride]	13.9 nM
Cn1nc(C(=O)CCC2CCN(Cc3cccc(Cl)c3)CC2)c2ccccc21 [Compound No. 2-99, 1-Methyl-3-{3-[1-(3-chlorobenzyl)-4-piperidyl]-propionyl}indazole hydrochloride]	31.7 nM
